According to patent EP0321368A1, “Heterocyclic N-carbamoyl, N-thiocarbamoyl or N-amidino-aminomalonyl or -aminosuccinyl amide derivatives as sweetening agents” (NOFRE, Claude, priority 1987, dated 1989):
≈ marks a conversion by molar mass, not a printed value.

Columns and labels:
goûteurs expérimentés = assay: Sweetening power judged by a panel of eight experienced tasters against a sucrose reference solution; format: in vivo; details: for pouvoir édulcorant: weight basis
Text: Le pouvoir édulcorant des composés ainsi préparés a été évalué par un groupe de huit goûteurs expérimentés. Pour cela, les composés, en solution aqueuse à des concentrations variables, sont comparés, sur le plan gustatif, à une solution témoin de saccharose à 2 % et dans certains cas à 5 % et 10 ^o/o, c'est-à-dire à des concentrations correspondant à celles utilisées lors d'un usage courant. Le pouvoir sucrant des édulcorants de synthèse varie en effet suivant la concentration de la solution de saccharose utilisée comme référence. Le pouvoir édulcorant du composé testé par rapport au saccharose correspond alors au rapport pondéral qui existe entre le composé et le saccharose à égale intensité édulcorante, c'est-à-dire quand les saveurs sucrées de la solution du composé testé et de la solution témoin de saccharose sont considérées, par une majorité de goûteurs, avoir la meme intensité édulcorante.

[1] = Solubility in water at pH 3 (phosphate buffer) near 0 °C, saturated filtrate assayed by HPLC; format: physicochemical; details: for solubility at 1 h: aqueous buffer, pH 3 (phosphate buffer), 0° C, read-out: solubilité; for solubilité, fois plus élevée que celle de l'analogue carbocyclique 4-cyanophényle: ratio to exemple 4 of EP-B-0107597, pH 3, 0° C
Description: La solubilité a été mesurée de manière suivante. On met en suspension dans l'eau à pH 3 (tampon phosphate) et à température voisine de 0° C (ce qui correspond aux conditions de préparation et de stockage des boissons gazeuses) un excès du composé dont veut déterminer la solubilité. On soumet alors la suspension, toujours dans un bain de glace, à l'action des ultrasons pendant 60 min, puis on filtre (sur filtre Millipore Millex-HV 0,45 micromètre). Le composé, qui se trouve ainsi dissous à saturation dans le filtrat, est dosé par chromatographie liquide haute performance (HPLC) par rapport à une solution de référence de concentration connue.

[2] = compared with a 2 % sucrose solution

SMILES	pouvoir édulcorant (goûteurs expérimentés; [2])	other results
COC(=O)[C@H](Cc1ccccc1)NC(=O)[C@H](CC(=O)O)NC(=O)Nc1ccc(Cl)nc1 [Exemple 3, N-(2-chloro-5-pyridylcarbamoyl)-L-aspartyl-L-phénylalanine méthyl ester]	~500 fois celui du saccharose	
COC(=O)[C@H](Cc1ccccc1)NC(=O)[C@H](CC(=O)O)NC(=O)Nc1cccnc1 [Exemple 1, N-(3-pyridylcarbamoyl)-L-aspartyl-L-phénylalanine méthyl ester]	~100 fois celui du saccharose	
COC(=O)[C@H](Cc1ccccc1)NC(=O)[C@H](CC(=O)O)NC(=O)Nc1ccc2nonc2c1 [Exemple 8, N-(5-benzofurazanylcarbamoyl)-L-aspartyl-L-phénylalanine méthyl ester]	~5 000 fois celui du saccharose	solubility at 1 h [1]: ~180 µg/mL (≈ 395 µM); solubilité, fois plus élevée que celle de l'analogue carbocyclique 4-cyanophényle [1]: ~9 fois
COC(=O)[C@H](Cc1ccccc1)NC(=O)[C@H](CC(=O)O)NC(=O)Nc1ccc2c(c1)no[n+]2[O-] [Exemple 9, N-(1-oxyde-5-benzofurazanylcarbamoyl)-L-aspartyl-L-phénylalanine méthyl ester]	~2 000 fois celui du saccharose	
COC(=O)[C@H](Cc1ccccc1)NC(=O)[C@H](CC(=O)O)NC(=S)Nc1cccnc1 [Exemple 2, N-(3-pyridylthiocarbamoyl)-L-aspartyl-L-phénylalanine méthyl ester]	~1 000 fois celui du saccharose	
COC(=O)[C@H](Cc1ccccc1)NC(=O)[C@H](CC(=O)O)NC(=O)Nc1ccc(C#N)cc1 [exemple 4 du brevet EP-B-0107597, reference compound]		solubility at 1 h [1]: ~20 µg/mL (≈ 45.6 µM)
COC(=O)[C@H](Cc1ccccc1)NC(=O)[C@H](CC(=O)O)NC(=S)Nc1cnc(C#N)nc1 [Exemple 7, N-(2-cyano-5-pyrimidinylthiocarbamoyl)-L-aspartyl-L-phénylalanine méthyl ester]	~50 000 fois celui du saccharose	
COC(=O)[C@H](Cc1ccccc1)NC(=O)[C@H](CC(=O)O)NC(=O)Nc1ccc2c(c1)OCO2 [Exemple 11, N-(3,4-méthylènedioxyphénylcarbamoyl)-L-aspartyl-L-phénylalanine méthyl ester]	~50 fois celui du saccharose	
COC(=O)[C@H](Cc1ccccc1)NC(=O)[C@H](CC(=O)O)NC(=O)Nc1ccc2nsnc2c1 [Exemple 10, N-(5-benzothiofurazanylcarbamoyl)-L-aspartyl-L-phénylalanine méthyl ester]	~500 fois celui du saccharose	
COC(=O)[C@H](Cc1ccccc1)NC(=O)[C@H](CC(=O)O)NC(=S)Nc1ccc(OC)nc1 [Exemple 6, N-(2-méthoxy-5-pyridylthiocarbamoyl)-L-aspartyl-L-phénylalanine méthyl ester]	~1 400 fois celui du saccharose	
COC(=O)[C@H](Cc1ccccc1)NC(=O)[C@H](CC(=O)O)NC(=O)Nc1ccc(C#N)nc1 [Exemple 4, N-(2-cyano-5-pyridylcarbamoyl)-L-aspartyl-L-phénylalanine méthyl ester]	~8 000 fois celui du saccharose	fois plus sucré que le saccharose (goûteurs expérimentés; concentration of the sucrose reference not given): 8 000 fois; pouvoir édulcorant (goûteurs expérimentés; compared with a 5 % sucrose solution): ~6 000 fois; pouvoir édulcorant (goûteurs expérimentés; compared with a 10 % sucrose solution): ~4 000 fois; solubility at 1 h [1]: ~70 µg/mL (≈ 159 µM); solubilité, fois plus élevée que celle de l'analogue carbocyclique 4-cyanophényle [1]: ~3,5 fois
N#Cc1ccc(NC(=O)N[C@@H](CC(=O)O)C(=O)NC(c2ccccc2)c2ccco2)cn1 (stereo partly drawn) [Exemple 5, acide N-(2-cyano-5-pyridylcarbamoyl)-L-aspartique N-[(RS)-alpha-(2-furyl)benzyl] alpha-monoamide]	~700 fois celui du saccharose	
